In the NIST ThermoML archive (doi:10.1021/acs.jced.7b00386):

Details: Liquid; for mass density: Siemens ultrasonic flowmeter; for viscosity: Capillary tube (Ostwald / Ubbelohde) method

CCCCCCCC(=O)OCC [ethyl octanoate]
Details | mass density [kg/m3] | viscosity [mPa·s]
303.25 K, 100 kPa | 858.1 | –
303.26 K, 12080 kPa | 871 | –
303.3 K, 6080 kPa | 864.4 | –
303.32 K, 3120 kPa | 861.3 | –
303.32 K, 9130 kPa | 867.8 | –
303.33 K, 15080 kPa | 874.1 | –
312.87 K, 100 kPa | – | 1.083
312.96 K, 3120 kPa | – | 1.133
313.03 K, 6060 kPa | – | 1.189
313.05 K, 100 kPa | 849.5 | –
313.08 K, 6150 kPa | 856.1 | –
313.08 K, 9090 kPa | – | 1.211
313.1 K, 9150 kPa | 859.6 | –
313.1 K, 12100 kPa | 862.7 | –
313.11 K, 15110 kPa | 865.9 | –
313.12 K, 3140 kPa | 853 | –
313.12 K, 12070 kPa | – | 1.245
313.14 K, 15240 kPa | – | 1.284
323 K, 100 kPa | 841.1 | –
323.07 K, 100 kPa | – | 0.9464
323.09 K, 3130 kPa | 844.7 | –
323.1 K, 6150 kPa | 848.1 | –
323.13 K, 9110 kPa | 851.4 | –
323.14 K, 12140 kPa | 854.8 | –
323.16 K, 3150 kPa | – | 0.9842
323.16 K, 15050 kPa | 858.1 | –
323.17 K, 6110 kPa | – | 1.016
323.17 K, 9080 kPa | – | 1.043
323.17 K, 12070 kPa | – | 1.064
323.19 K, 15060 kPa | – | 1.098
333 K, 100 kPa | 832.2 | –
333.14 K, 100 kPa | – | 0.8143
333.14 K, 3100 kPa | 836.2 | –
333.18 K, 6080 kPa | 839.7 | –
333.18 K, 9090 kPa | 843.3 | –
333.2 K, 12100 kPa | 846.9 | –
333.21 K, 15100 kPa | 850.3 | –
333.29 K, 3110 kPa | – | 0.8536
333.3 K, 6060 kPa | – | 0.8851
333.3 K, 9130 kPa | – | 0.9101
333.3 K, 15090 kPa | – | 0.9551
333.31 K, 12040 kPa | – | 0.9301
342.78 K, 100 kPa | – | 0.731
343.07 K, 6130 kPa | – | 0.7776
343.1 K, 12150 kPa | 838.8 | –
343.11 K, 100 kPa | 823.6 | –
343.11 K, 3120 kPa | 827.8 | –
343.14 K, 6100 kPa | 831.7 | –
343.16 K, 9070 kPa | 835 | –
343.16 K, 9090 kPa | – | 0.7968
343.17 K, 15000 kPa | 842.1 | –
343.22 K, 12100 kPa | – | 0.8165
343.27 K, 15050 kPa | – | 0.8446
343.41 K, 3120 kPa | – | 0.7572
353.1 K, 100 kPa | 814.5 | –
353.16 K, 9130 kPa | 826.8 | –
353.21 K, 100 kPa | – | 0.6393
353.21 K, 3150 kPa | 819 | –
353.24 K, 15070 kPa | 834.4 | –
353.25 K, 12140 kPa | 830.7 | –
353.27 K, 6150 kPa | 823 | –
353.32 K, 3120 kPa | – | 0.6742
353.35 K, 6090 kPa | – | 0.691
353.35 K, 12080 kPa | – | 0.7292
353.36 K, 15060 kPa | – | 0.7479
353.38 K, 9070 kPa | – | 0.707
